Measured values reported in patent publication US7968558B2, “Amidine derivatives of 2-heteroaryl-quinazolines and quinolines; potent analgesics and anti-inflammatory agents” (Rottapharm S.p.A., priority 2006, dated 2011).
Read-outs that look alike come from different tables or passages of the source.

Experiments:
IL-1 production = IL-1 production in IL-1 stimulated human chondrosarcoma cell line; type: cell-based; conditions: Compound concentration is 10 μM
Source text: (§1) The compounds of the invention have been found effective in interfering with cytokine production in several cell lines, representative examples of this effect are reported in Table 3, for two representative cytokines, in IL-1 stimulated human chondrosarcoma cell line.

IL-6 production = IL-6 production in IL-1 stimulated human chondrosarcoma cell line; type: cell-based; conditions: Compound concentration is 10 μM
Source text: as §1

[1] = system: Zymosan induced paw volume increase; assay: Zymosan-induced paw oedema; type: in vivo, rat; conditions: oral
Experimental: (§2) The interplantar injection of Zymosan-induced mechanical hyperalgesia was used as a model of inflammatory pain (Meller, Neuropharmacology, 1994, 33, 1471-1478). In this model, typically a male Sprague-Dawley or Wistar rat (200-250 g) receives an interplantar injection of 3 mg/100 μl zymosan into one hind paw. A marked inflammation occurs in this hind paw. Drugs are administered orally for evaluation of efficacy, 30 min. before the inflammatory insult. The hyperalgesia induced by zymosan administration was evaluated using the Randall-Selitto method (Arch. Int. Pharmacodyn., 1957, 111, 409). The quantitation of the analgesic effect is achieved by an analgesimeter, which consist in applying to the inflamed paw an increasing weight (from 130-140 g up to 500 g). The difference in the mechanical pain threshold between the basal value (generally 230-250 g) and the one tolerated by the animals treated with the drug, determined 4 hours after the inflammatory challenge, is defined as mechanical hyperalgesia.
(§3) Mechanical hyperalgesia is expressed for the compounds of the invention as ED50, which is the dose of the administered compound able to increase the pain threshold by 50% in comparison with the group of control animals. The corresponding ED100, representing the dose able of reducing of 100% the pain threshold, can be calculated for those cases where there is a linear dose-response relationship. In vivo anti-inflammatory effect exerted by the compound of the invention can be assessed in the same Zymosan induced inflammation test described above, by measuring the volume of the oedema induced by the inflammatory agent. The oedema was evaluated as the increase in the volume of the Zymosan injected paw within a time of 0-2 hrs. The measurements of the variation of the oedema volume of the paw were recorded using hydroplethysmometer, which consists of two plastic cuvettes containing a surfactant liquid, the larger one being used for immersion of the paw, connected to the smaller one which contains a trans-ducer capable of recording small displacements of the volume used for the measure. The paw is immersed in the cuvettes up to the tibiotarsal joint. The volume of the liquid displaced is proportional to the extent of the inflammation. The efficacy of the compounds of the invention in preventing oedema formation is expressed as ED30, and is measured 2 hours after the inflammatory challenge, and represents the dose able of reducing of 30%, the Zymosan induced paw volume increase in comparison to control animals (animals treated with Zymosan but treated with only distilled water instead of the testing compound). The corresponding ED50, representing the dose able of reducing of 50% the zymosan induced paw volume increase, can be calculated for those cases where there is a linear dose-response relationship.
(§4) In both the experiments, for each test compound, at least three doses were used, with 10 animals per group. Compounds of the invention were tested at 10, 20 and 40 mg/Kg.

[2] = system: formalin-induced paw licking; assay: Formalin (licking) test; type: in vivo, mice; conditions: Mus musculus, ip, 1 hour before formalin
Experimental: The formalin test is increasingly used as a model of injury-produced pain (FV. Abbott, Pain, 1995, 60, 91-102). The procedure used for the evaluation of the compounds of the invention was similar to that reported by literature (S. Hunskaar, Pain, 1987, 30, 103-104), and consisted of the injection of 20 μl of 1% solution of formalin dissolved in distilled water, in the plantar surface of the right hind paw of the mice. Immediately, the animals were placed individually in an observation chamber. The amount of time that the animal spent licking the injected paw, considered indicative of pain, was recorded during 30 min. following formalin injection. The initial nociceptive scores normally peaked 5 min after formalin injection (early phase) and 15-30 min. after formalin injection (late phase), representing both the neurogenic and inflammatory pain responses respectively.
Animals were treated i.p. with an aqueous solution of the tested compound (doses: 3, 10, 30 mg/Kg), 1 hour before the formalin injection. Control animals received only the vehicle.
In Table 8, the analgesic effect elicited in this test by a representative compound of Formula (I), is expressed as ED50 both for the early and late phase, and compared with the performance of the standard reference, paracetamol.

[3] = system: Zymosan-induced mechanical hyperalgesia; assay: Zymosan-induced mechanical hyperalgesia (Randall-Selitto); type: in vivo, rat; conditions: oral
Experimental: as §2, §3, §4

CFA-induced hyperalgesia = assay: CFA model of chronic inflammatory pain; type: in vivo, rat
COX-2 expression = assay: IL-1β induced COX-2 expression in SW1353 human chondrosarcoma cell line; type: cell-based; conditions: Homo sapiens, SW1353, read-out: Inhibition of COX-2 expression in SW1353 human chondrosarcoma cell line, IC50
Source text: Conversely, compounds of the invention are able to inhibit, at micromolar concentration, IL-1β induced PGE2 production in cellular systems. This inhibition effect on the production of the pro-inflammatory mediator PGE2, instead of to be ascribed to a direct COX-2 inhibition, as happens with Celecoxib and other COX-2 inhibitors, is in this case due to inhibition of cytokine induced COX-2 expression as proven in cellular systems.
Effectiveness in inhibition of PGE2 production induced by IL-1β in chondrocyte cell culture, as well as inhibition in IL-1β induced COX-2 expression in SW1353 human chondrosarcoma cell line, is summarized in Table 2, for representative compounds of the invention.

CC(=N)Nc1ccc2nc(-c3ccc4c(c3)OCO4)ncc2c1 [Example 1, N-[2-(1,3-benzodioxol-5-yl)quinazolin-6-yl]acetamidine]
Inhibition (%) of IL-1 production (IL-1 production): 50%
Inhibition (%) of IL-6 production (IL-6 production): 65%
ED50 ([1]; Rattus norvegicus, calculated from linear dose-response, read-out: Oedema Reduction ED50): 23.1 mg/kg
Oedema Reduction ED30 ([1]; 2 hours after challenge): 12.2 mg/kg
ED50 ([2]; early phase, read-out: Analgesic effect ED50 (mg/Kg) Early phase): 19 mg/kg
ED50 ([2]; late phase, read-out: Analgesic effect ED50 (mg/Kg) Late phase): 13 mg/kg
ED50 ([3]; Rattus norvegicus, 30 min before zymosan, 4 hours after challenge, read-out: Analgesia ED50): 6 mg/kg
Analgesia ED100 ([3]; calculated from linear dose-response): 18 mg/kg
MPE 0.5 hrs. (CFA-induced hyperalgesia; 3 mg/Kg i.p.): 9%
MPE 0.5 hrs. (CFA-induced hyperalgesia; 10 mg/Kg i.p.): 28%
MPE 1.5 hrs. (CFA-induced hyperalgesia; 10 mg/Kg i.p.): 47%
MPE 3 hrs. (CFA-induced hyperalgesia; 10 mg/Kg i.p.): 15%
MPE 6 hrs. (CFA-induced hyperalgesia; 10 mg/Kg i.p.): 30%
MPE 0.5 hrs. (CFA-induced hyperalgesia; 30 mg/Kg i.p.): 418%
MPE 1.5 hrs. (CFA-induced hyperalgesia; 30 mg/Kg i.p.): 395%
MPE 3 hrs. (CFA-induced hyperalgesia; 30 mg/Kg i.p.): 384%
MPE 6 hrs. (CFA-induced hyperalgesia; 30 mg/Kg i.p.): 132%
MPE 24 hrs. (CFA-induced hyperalgesia; 30 mg/Kg i.p., 24 hrs.): 60%
IC50 (COX-2 expression): 4.6 µM
